Test results published in article PMC8414802, “Hair Cell Generation in Cochlear Culture Models Mediated by Novel γ-Secretase Inhibitors” (Frontiers in Cell and Developmental Biology, 2021).

Tests used:
[1] = test system: Pou4f3 positive hair cells in cochlear sensory epithelium from P2 rats; assay: Hair cell counts in rat organ of Corti explants; assay type: cell-based; details: rat OC explants, 4 days, apex/middle/base
Description: OC explants were isolated from postnatal day 2 (P2) Wistar rats, P0-P2 mice (Lgr5-GFP or Atoh1-nGFP mice). Dissection of the cochlea under a stereomicroscope (Nikon SMZ800, Japan) allowed OC separation from stria vascularis and modiolus, and the sensory epithelium was plated with hair cells facing up on Cell-Tak (Corning, United States)-coated transwell-clear inserts (6-well format, 0.4 μm pore, Corning, United States). Dissection medium was exchanged for 1.5 ml full otic medium supplemented with 10% FBS (Invitrogen) and 0.01% Ampicillin (Sigma), added under the insert membrane, maintaining the OC under a thin film of medium during culture at 37°C. 5-ethyl-2′-deoxyuridine (EdU, 5 μM, Life Technologies) was added directly in the medium when indicated. […]
(§1) Dividing cells were labeled with, 5-ethyl-2′-deoxyuridine (EdU) and detected with Click-it Plus kit (Life Technologies). […]
Image processing was performed with the open-source image processing software FIJI, version 2.0 ([Schindelin et al., 2012]). Hair cells were quantified by counting Pou4f3 or Myo7a positive cells of the organ of Corti at three random microscopic fields for each cochlear region (base, middle, and apex) covering in total at least 1,200 μm. The number of hair cells (IHCs and OHCs) is expressed as unit per 100 μm. […]

[2] = test system: hair cells in sisomicin-treated rat OC explants; assay: OC explants after sisomicin ototoxic damage; assay type: cell-based; details: sisomicin 200 μM 2 h
Description: To induce ototoxic damage, medium was removed from the OC cultures on the day after dissection and either 200 μM sisomicin (Sigma) in full otic medium, or 10^8 cfu/ml Streptococcus pneumoniae (described below) in ampicillin-free and FBS-free otic medium were added under the transwell membrane (lower compartment) of the cultivation system. After 2 h of exposure to the ototoxic insult, OCs were carefully washed 3 times and culture was continued for 4 days in fresh full otic medium.
Following culture, explants were washed (PBS) and fixed for 10 min at room temperature (RT) with 4% paraformaldehyde (PFA). […]
as §1
Image processing was performed with the open-source image processing software FIJI, version 2.0 ([Schindelin et al., 2012]). Hair cells were quantified by counting Pou4f3 or Myo7a positive cells of the organ of Corti at three random microscopic fields for each cochlear region (base, middle, and apex) covering in total at least 1,200 μm. The number of hair cells (IHCs and OHCs) is expressed as unit per 100 μm.
FIGURE 3 GSI treatment after ototoxic damage. […] (B) Quantification of OHCs in sisomicin-treated explants (2 h; 200 μM), 4 days after ototoxic insult, and cultured in presence or absence of CPD3. […] (F) OHC quantification after bacteria-induced damage. […]

COc1ccc2c(c1)N1CCC(C)(C)C1=CC(=O)[C@H]2NC(=O)[C@H](C)NC(=O)CCC(F)(F)F [CPD3]
Region of OHC induction [1]: limited to the apical region | Increase of OHC numbers after sisomicin ([2]; 4 days culture, apex): not statistically significant | Pou4f3/Sox2 double-positive cells after sisomicin ([2]; 4 days, p = 0.057): observed only in the apical domain
